Test results published in patent publication US20220089600A1, “TGFß INHIBITOR AND PRODRUGS” (FUNDACIÓ INSTITUT DE RECERCA BIOMÈDICA (IRB BARCELONA), priority 2018, published 2022).

Columns and labels:
[1] = target: T1, LigF expressed in HEK293T cells (Sphingobium sp., UniProt P30347); assay: Fluorescence assay in HEK293T cells stably expressing LigF; format: cell-based
T1 construct: expressed in transfected cells; host or cells: HEK293T (lentiviral pLenti PGK puro)
Procedure: […]. At time points after addition of various concentrations of MUAV, namely 10, 30, and 100 μM, culture medium was taken for measurements of 4-MU fluorescence.

LigF = target: T2, LigF (Sphingobium sp., UniProt P30347); assay: In vitro fluorescence assay with purified LigF; format: biochemical, Sphingobium sp. strain SYK-6; conditions: 30 μM substrate, 15 μg/ml LigF, 1 mM glutathione, room temperature
T2 construct: made in house; host or cells: E. coli BL21 (DE3) Rosetta lysS
T2 sequence (P30347 1-257): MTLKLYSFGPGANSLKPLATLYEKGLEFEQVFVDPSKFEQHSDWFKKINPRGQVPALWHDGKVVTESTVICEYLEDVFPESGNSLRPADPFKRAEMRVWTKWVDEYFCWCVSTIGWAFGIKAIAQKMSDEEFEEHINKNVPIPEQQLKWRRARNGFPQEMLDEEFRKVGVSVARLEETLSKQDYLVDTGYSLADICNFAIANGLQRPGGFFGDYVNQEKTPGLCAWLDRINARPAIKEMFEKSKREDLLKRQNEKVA
Procedure: To test the enzymatic activity of LigF, pure LigF protein was expressed by the Protein Expression Core Facility within the IRB Barcelona by inserting the His-tagged LigF DNA into a pOPINF vector and expressed in E. coli BL21 (DE3) Rosetta IysS cells. After expression and lysis, the protein was purified by using a nickel column followed by gel filtration. Noteworthy, the His tags were not removed from the protein after purification.
For in vitro fluorescence assays, purified LigF was diluted to 15 μg/ml in 20 mM Tris-HCl (pH 7.5), 1 mM glutathione and 30 μM 4-methylumbelliferone acetovanillone (MUAV) model compound was added.
Reactions were performed in a 96-well solid polystyrene plate (Corning) and measured with a top-well plate reader (BioTek FL600 fluorometer) at 360 excitation, 485 emission and sensitivity 100.
Due to a rapid rate of production of 4-methylumbelliferone (4-MU) owing to the cleavage of the beta-ether bond of compound MUAV, the protocol described by Masai (E. Masai et al., J. Bacteriol. 2003, 185, 1768-75) was modified by lowering the LigF enzyme concentration. With this optimized protocol, compound MUAV was incubated at room temperature in the presence of a buffer, glutathione (GSH) and LigF, and followed the cleavage by observing the production of 4-MU by fluorescence. […] Enzyme LigF cleaved product MUAV in approximately 30-40 min (FIG. 6).

MTO129 liver metastases [2] = conditions: Tauriello et al. Nature 2018 (10×); cited from earlier work
MTO129 liver metastases [3] = assay: Mouse liver metastasis initiation/formation assay with MTOs; format: in vivo; conditions: for Efficacy (Cure rate): two weeks, mice with no metastases; for metastatic tumor growth inhibitory capacity (bioluminescence): day 3 until day 14
Source text: Mouse tumor organoids (MTOs) are derived from compound transgenic mice (conditional mutations in Apc, Kras, Trp53 and Tgfbr2, as well as bearing Lgr5-EGFP/CreER^T2) of the C57BL6/J strain and cultured as described in Tauriello et al. 2018 Nature 554(7693): 538-543. doi: 10.1038/nature25492. Organoids are tumor epithelial cells grown in a 3D matrix where they adopt an organotypic architecture, typically as spheroids with a lumen. In this way, cells retain a relatively normal polarity (which means that the outside surface, inside/luminal surface and cell-cell contacts are individually specialized), which is more physiological than in conventional 2D cell culture.
In all experiments described in present invention MTO129 were used (Tauriello et al. Nature. 2018).
In patients, treatment doses were reduced to 80 to 150 mg b.i.d in a regime of 14 days on-14 days off.
MTOs expressing a luciferase reporter were measured by bioluminescence imaging, using retroorbital injection of 50 μl 15 mg/ml D-luciferin potassium salt (Resem BV). Photons per second from the region spanning thorax/abdomen were quantified and normalized to the measure at the day of injection.
Control mice were treated with 150 μl of vehicle.
In the experiment shown in FIG. 13, potency of the indicated compounds to inhibit metastasis formation was assessed. Mice were treatments with indicated compounds started two days after MTO129 transplantation and continued during two weeks. Mice were sacrificed at 4 weeks post transplantation and liver metastases (LiMs) were counted by eye on fixed livers.

[4] = tested on: TGFβ signaling (12×CAGA-Firefly_Luc reporter) in HEK293T cells; assay: In vitro CAGA-Luciferase reporter assay; format: cell-based; conditions: Homo sapiens, HEK-293T, 5 ng/ml TGFB1, 16h, read-out: IC50, TGFβ signaling inhibition (CAGA-Luciferase)
Procedure: HEK293T cells were purchased from the ATCC and cultured in DMEM supplemented with L-glutamine and 10% fetal bovine serum (Life Technologies) at 37° C. and 5% CO2. The cells were seeded in 24-well plates and transfected with plasmids encoding 12×CAGA-Firefly_Luc and Tk-Renilla_Luc (75 and 10 ng per well, respectively), using polyethylenimine (Polysciences) as transfection reagent. After 7h, medium was replaced for starvation medium (DMEM+0.05% FBS). […] Luciferase activity was measured 16h later using the Dual Luciferase Assay kit (Promega): media were aspirated, and cells were lysed in 200 μl passive lysis buffer (kit) for 20 minutes. Bioluminescence was measured in a Berthold Lumat LB6507 luminometer (18 μl reagents, 10 seconds measurements). […]
When adding the luciferase substrate (luciferin) to the cell lysates, emission of light implies an active TGF-β pathway due to the production of pSMAD2/3-SMAD4, whereas no or little observed light would imply inhibition of the pathway by the inhibitor. Finally, the results could be normalized by the addition of Stop & Glo® which quenches the firefly luciferase enzyme/substrate and activates the Renilla transfection control, producing light which was again measured by the luminometer and used to normalize the data.

[5] = In vivo toxicity, histopathology; set-up: species or system mouse; conditions: for Sternum side effect, mice affected per mice tested / Long bones side effect, mice affected per mice tested: two weeks
Source text: Number of cured mice, i.e. mice with no metastases at experimental end points, were score. Intestines, skin samples, hearts, thoracic skeletons and limbs of these mice were fixed in 10% formalin, phosphate buffered (Sigma). Soft tissues were embedded in paraffin blocks, sectioned and stained with haematoxylin & eosin. Bones were first decalcified for 2 weeks before embedding, sectioning and staining. An experienced pathologist analyzed tissues for histopathological abnormalities. […] Furthermore, the cartilage ossification zone at the ends of the long bones was analysed for defects in the hypertrophic zone.

In the case of `COc1cc(C(=O)COc2ccc3c(C)cc(=O)oc3c2)ccc1O` [MUAV, 7-(2-(4-hydroxy-3-methoxyphenyl)-2-oxoethoxy)-4-methyl-2H-chromen-2-one], the “cleavage of ether bond (4-MU fluorescence)” value ([1]; HEK293T expressing LigF, 10, 30, 100 μM) is reported as “dose-dependent increase in fluorescence”, the “cleavage of ether bond (4-MU fluorescence)” value ([1]; HEK293T with empty vector (no LigF), 100 μM) is reported as “No cleavage” and the “time for cleavage by LigF” value (LigF) is reported as 30 to 40 min.

For `Cc1cccc(-c2nn3c(c2-c2ccnc4ccc(C(N)=O)cc24)CCC3)n1` [Galunisertib, reference compound], the “doses needed to effectively treat metastatic cancers” value (MTO129 liver metastases [2]) is listed as “up to 1600 mg/kg/day”, the “Efficacy (Cure rate)” value (MTO129 liver metastases [3]; 1x dose) is listed as 0% and the “Efficacy (Cure rate)” value (MTO129 liver metastases [3]; 3x dose) is listed as roughly 70%. The “Efficacy (Cure rate)” value (MTO129 liver metastases [3]; 9x dose) was roughly 100%, the “metastatic tumor growth inhibitory capacity” value (MTO129 liver metastases [3]; 9× dose, as seen in FIG. 3) was “highly effective” and the “metastatic tumor growth inhibitory capacity (bioluminescence)” value (MTO129 liver metastases [3]; FIG. 4, 1× dose) was “not effective”. The “metastatic tumor growth inhibitory capacity (bioluminescence)” value (MTO129 liver metastases [3]; FIG. 4, 3× dose) was “mostly effective”, the “effective dose (>50% efficacy)” value (MTO129 liver metastases [3]; oral, divided b.i.d.) was 480 mg/kg/day and the IC50 [4] was 359 nM. The “Combined side effects per number tested” value ([5]; 1x dose) was 0/5, the “Toxicity (%)” value ([5]; 1x dose) was 0% and the “Sternum side effect, mice affected per mice tested” value ([5]; 1x dose) was 0/5. The “pathological analysis of the skin and intestine” value ([5]; 1× doses) was “No pathological anomalies”, the “Combined side effects per number tested” value ([5]; 3x dose) was 1/9 and the “Toxicity (%)” value ([5]; 3x dose) was 11%. The “Long bones side effect, mice affected per mice tested” value ([5]; 3x dose) was 0/5, the “Sternum side effect, mice affected per mice tested” value ([5]; 3x dose) was 1/4 and the “Combined side effects per number tested” value ([5]; 9x dose) was 6/10. For the same compound, the “Toxicity (%)” value ([5]; 9x dose) was 60%, the “Long bones side effect, mice affected per mice tested” value ([5]; 9x dose) was 2/3 and the “Sternum side effect, mice affected per mice tested” value ([5]; 9x dose) was 4/7. For the same compound, the “toxic dose (toxicity >50%)” value ([5]; 9× dose equivalent) was 1440 mg/kg/day.
